The source made the active and inactive calls. No rule for the calls is given here.
System: CCRIS mutagenicity, Ames/micronucleus/aberration tests
Assay: CCRIS mutagenicity studies
[1] = Test System: AMES SALMONELLA TYPHIMURIUM, Strain/Indicator: TA98, Metabolic Activation: NONE, Method: PREINCUBATION

Compound: O=CCC=O
- mutagenic call (End Point: IN VITRO CHROMOSOMAL ABERRATIONS, Test System: CHO CELLS, Metabolic Activation: RAT, LIVER, S-9, AROCLOR 1254): inactive; negative
- mutagenic call (Test System: AMES SALMONELLA TYPHIMURIUM, Strain/Indicator: HISD3052, Metabolic Activation: NONE, Method: STANDARD PLATE): active; positive
- mutagenic call (Test System: AMES SALMONELLA TYPHIMURIUM, Strain/Indicator: TA94, Metabolic Activation: NONE, Method: STANDARD PLATE): inactive; negative
- mutagenic call (Test System: AMES SALMONELLA TYPHIMURIUM, Strain/Indicator: TA98, Metabolic Activation: HAMSTER, LIVER, S-9, AROCLOR 1254, Method: PREINCUBATION): inactive; negative
- mutagenic call [1]: inactive; negative
- mutagenic call (Test System: AMES SALMONELLA TYPHIMURIUM, Strain/Indicator: TA98, Metabolic Activation: RAT, LIVER, S-9, AROCLOR 1254, Method: PREINCUBATION): inactive; negative
- mutagenic call (Test System: AMES SALMONELLA TYPHIMURIUM, Strain/Indicator: TA100, Metabolic Activation: HAMSTER, LIVER, S-9, AROCLOR 1254, Method: PREINCUBATION): inactive; negative
- mutagenic call (Test System: AMES SALMONELLA TYPHIMURIUM, Strain/Indicator: TA100, Metabolic Activation: NONE, Method: PREINCUBATION): inactive; negative
- mutagenic call (Test System: AMES SALMONELLA TYPHIMURIUM, Strain/Indicator: TA100, Metabolic Activation: RAT, LIVER, S-9, AROCLOR 1254, Method: PREINCUBATION): inactive; negative
- mutagenic call (Test System: AMES SALMONELLA TYPHIMURIUM, Strain/Indicator: TA102, Metabolic Activation: NONE, Method: PREINCUBATION): active; positive
- mutagenic call (Test System: AMES SALMONELLA TYPHIMURIUM, Strain/Indicator: TA104, Metabolic Activation: NONE, Method: PREINCUBATION): active; positive
- mutagenic call (Test System: AMES SALMONELLA TYPHIMURIUM, Strain/Indicator: TA1535, Metabolic Activation: HAMSTER, LIVER, S-9, AROCLOR 1254, Method: PREINCUBATION): inactive; negative
- mutagenic call (Test System: AMES SALMONELLA TYPHIMURIUM, Strain/Indicator: TA1535, Metabolic Activation: NONE, Method: PREINCUBATION): inactive; negative
- mutagenic call (Test System: AMES SALMONELLA TYPHIMURIUM, Strain/Indicator: TA1535, Metabolic Activation: RAT, LIVER, S-9, AROCLOR 1254, Method: PREINCUBATION): inactive; negative
- mutagenic call (Test System: AMES SALMONELLA TYPHIMURIUM, Strain/Indicator: TA1537, Metabolic Activation: HAMSTER, LIVER, S-9, AROCLOR 1254, Method: PREINCUBATION): inactive; negative
- mutagenic call (Test System: AMES SALMONELLA TYPHIMURIUM, Strain/Indicator: TA1537, Metabolic Activation: NONE, Method: PREINCUBATION): inactive; negative
- mutagenic call (Test System: AMES SALMONELLA TYPHIMURIUM, Strain/Indicator: TA1537, Metabolic Activation: RAT, LIVER, S-9, AROCLOR 1254, Method: PREINCUBATION): inactive; negative
- mutagenic call (Test System: MOUSE LYMPHOMA, Strain/Indicator: L5178Y (TK+/TK-), Metabolic Activation: NONE, Method: SUSPENSION/PLATE): active; positive

Compound: CCn1cc(C(=O)O)c(=O)c2cc(F)c(N3CCNCC3)nc21
- mutagenic call (Test System: AMES SALMONELLA TYPHIMURIUM, Strain/Indicator: HISG428, Metabolic Activation: NONE, Method: STANDARD PLATE): inactive; negative
- mutagenic call (Test System: AMES SALMONELLA TYPHIMURIUM, Strain/Indicator: TA92, Metabolic Activation: NONE, Method: STANDARD PLATE): active; positive
- mutagenic call (Test System: AMES SALMONELLA TYPHIMURIUM, Strain/Indicator: TA102, Metabolic Activation: NONE, Method: STANDARD PLATE): active; positive
- mutagenic call (Test System: AMES SALMONELLA TYPHIMURIUM, Strain/Indicator: TA103, Metabolic Activation: NONE, Method: STANDARD PLATE): active; positive
- mutagenic call (Test System: AMES SALMONELLA TYPHIMURIUM, Strain/Indicator: TA104, Metabolic Activation: NONE, Method: STANDARD PLATE): inactive; negative
- mutagenic call (Test System: AMES SALMONELLA TYPHIMURIUM, Strain/Indicator: TA2638, Metabolic Activation: NONE, Method: STANDARD PLATE): active; positive
- mutagenic call (Test System: AMES SALMONELLA TYPHIMURIUM, Strain/Indicator: TA2661, Metabolic Activation: NONE, Method: STANDARD PLATE): inactive; negative
- mutagenic call (Test System: AMES SALMONELLA TYPHIMURIUM, Strain/Indicator: TA2662, Metabolic Activation: NONE, Method: STANDARD PLATE): active; positive
- mutagenic call (Test System: AMES SALMONELLA TYPHIMURIUM, Strain/Indicator: TA2678, Metabolic Activation: NONE, Method: STANDARD PLATE): inactive; negative

Compound: COC(=O)C(=Cc1ccc(Br)o1)[N+](=O)[O-]
- mutagenic call [1]: inactive; negative

Compound: CC(C)(C)NCC(O)COc1cccc2c1CC(O)C(O)C2 (centres undefined)
- mutagenic call (Test System: AMES SALMONELLA TYPHIMURIUM, Strain/Indicator: TA98, Metabolic Activation: NONE, Method: STANDARD PLATE): inactive; negative
- mutagenic call (Test System: AMES SALMONELLA TYPHIMURIUM, Strain/Indicator: TA98, Metabolic Activation: RAT, LIVER, S-9, AROCLOR 1254, Method: STANDARD PLATE): inactive; negative
- mutagenic call (Test System: AMES SALMONELLA TYPHIMURIUM, Strain/Indicator: TA100, Metabolic Activation: NONE, Method: STANDARD PLATE): inactive; negative
- mutagenic call (Test System: AMES SALMONELLA TYPHIMURIUM, Strain/Indicator: TA100, Metabolic Activation: RAT, LIVER, S-9, AROCLOR 1254, Method: STANDARD PLATE): inactive; negative
- mutagenic call (Test System: UDS HUMAN HEPATOCYTES, Strain/Indicator: THY INCORP, Metabolic Activation: NONE, Method: AUTORADIOGRAPHY): inactive; negative
- mutagenic call (Test System: UDS RAT HEPATOCYTES, Strain/Indicator: THY INCORP, Metabolic Activation: NONE, Method: AUTORADIOGRAPHY): inactive; negative
